From patent US9403832B2, “Pyrazolo[1,5-a]pyrimidine-based compounds, compositions comprising them, and methods of their use” (Lexicon Pharmaceuticals, Inc., priority 2012, dated 2016)

Molecular target: T1, AAK1 (Homo sapiens, UniProt Q2M2I8)
T1 construct: NP_055726.2
Experiment: P81 filter plate assay
Assay type: biochemical
Conditions: full-length human AAK1, Mu2 substrate, 33P-ATP
Experimental: Compounds were serially diluted into a Labcyte LDV plate (Labcyte, cat#LP-0200) using a Mutiprobe (PerkinElmer) and Biomek FX (Beckman Coulter) so that the highest compound concentration was at 96 μM. Compounds were then pinged (75 nL per well) into a Greiner 384-well reaction plate (Greiner, #781076) using an ECHO 550 Liquid Handler (Labcyte). A total of 12 μl reaction buffer (IMAP buffer containing Tween and DTT, from Molecular Devices) was then added to each well of columns 1 and 13 for the negative controls and 12 μl of 2× AAK1 (0.2 nM full-length human protein, NCBI accession no. NP_055726.2) was added to the remaining wells. Enzyme was then pre-incubated with compound for 10 minutes at RT. Reactions were initiated upon Minitrak (PerkinElmer) addition of 12 μl substrate mix containing 2× Mu2 (0.2 μM, full length human protein), 2× cold ATP (2 μM), and 1.3 μCi of hot ^33P-ATP. […] proceeded for one hour at RT. Meanwhile, Millipore 384-well P81 filter plates (Millipore, catalog #MZPHNOW10) were placed on a plate washer (Zoom ZW, from Titertek) and pre-wet with 50 μl 1% phosphoric acid. Kinase reactions were then stopped upon addition of 24 μl of 2% phosphoric acid to each well and the Minitrak was then used to transfer 40 μl from each well into the pre-wet Millipore 384-well P81 filter plates. Reaction mixtures were incubated for 10 minutes at RT in the P81 plates, followed by washing five times with 100 μl/well of 1% phosphoric acid using the Zoom filter washer. The bottom of each filter plate was sealed followed by addition of 20 μl Microscint 40 to each well, sealing the top of the plates with Flashplate cover, and then waiting one hour until reading on the TopCount (PerkinElmer).

T1 sequence (Q2M2I8 1-863 isoform Q2M2I8-2): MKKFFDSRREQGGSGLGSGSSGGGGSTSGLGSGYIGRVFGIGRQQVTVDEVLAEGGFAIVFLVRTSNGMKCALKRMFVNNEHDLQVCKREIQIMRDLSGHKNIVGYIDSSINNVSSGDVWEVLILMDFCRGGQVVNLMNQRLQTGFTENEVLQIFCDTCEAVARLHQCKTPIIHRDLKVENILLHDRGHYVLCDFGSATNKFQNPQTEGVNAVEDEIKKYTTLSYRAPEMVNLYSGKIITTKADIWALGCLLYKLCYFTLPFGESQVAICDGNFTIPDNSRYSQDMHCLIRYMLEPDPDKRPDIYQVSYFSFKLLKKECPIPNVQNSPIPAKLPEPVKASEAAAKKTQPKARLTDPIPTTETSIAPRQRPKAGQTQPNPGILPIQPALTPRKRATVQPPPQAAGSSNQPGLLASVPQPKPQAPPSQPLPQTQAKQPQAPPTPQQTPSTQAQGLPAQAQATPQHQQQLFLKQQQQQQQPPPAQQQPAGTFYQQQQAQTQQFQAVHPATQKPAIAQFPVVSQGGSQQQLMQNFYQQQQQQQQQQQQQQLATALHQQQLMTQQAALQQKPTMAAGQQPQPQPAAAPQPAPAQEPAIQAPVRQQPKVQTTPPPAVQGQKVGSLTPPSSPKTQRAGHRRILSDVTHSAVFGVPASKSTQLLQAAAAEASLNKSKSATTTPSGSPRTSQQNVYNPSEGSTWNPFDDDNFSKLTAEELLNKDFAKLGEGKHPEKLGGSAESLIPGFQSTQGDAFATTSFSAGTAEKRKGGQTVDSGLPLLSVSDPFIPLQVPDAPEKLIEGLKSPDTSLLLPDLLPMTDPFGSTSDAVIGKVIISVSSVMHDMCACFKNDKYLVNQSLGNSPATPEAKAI

Molecule COC/C=C/c1cnn2ccc(N3CCN(C(=O)OC(C)C)CC3)nc12 [(E)-isopropyl 4-(3-(3-methoxyprop-1-en-1-yl)pyrazolo[1,5-a]pyrimidin-5-yl)piperazine-1-carboxylate] has an IC50 of no more than 1000 nM.
With CC(C)(C)OC(=O)N1CCC[C@H]1CNc1ccn2ncc(-c3ccccc3)c2n1 [(S)-tert-butyl 2-(((3-phenylpyrazolo[1,5-a]pyrimidin-5-yl)amino)methyl)pyrrolidine-1-carboxylate] the IC50 was no more than 10 nM.
Molecule CCOC(=O)N1CCN(c2ccn3ncc(-c4ccc(OC)nc4OC)c3n2)CC1 [ethyl 4-(3-(2,6-dimethoxypyridin-3-yl)pyrazolo[1,5-a]pyrimidin-5-yl)piperazine-1-carboxylate] has an IC50 of no more than 10 nM.
For COc1ncccc1-c1cnn2ccc(N3CCN(CC(F)(F)F)CC3)nc12 [3-(2-methoxypyridin-3-yl)-5-(4-(2,2,2-trifluoroethyl)piperazin-1-yl)pyrazolo[1,5-a]pyrimidine], the IC50 was no more than 100 nM.
Molecule COc1ncccc1-c1cnn2ccc(N3CCN(C(=O)OC(C)C)C3=O)nc12 [isopropyl 3-(3-(2-methoxypyridin-3-yl)pyrazolo[1,5-a]pyrimidin-5-yl)-2-oxoimidazolidine-1-carboxylate] has an IC50 of no more than 1000 nM.
CC(C)OC(=O)N1CCN(c2ccn3ncc(-c4cccc5[nH]cnc45)c3n2)CC1 [isopropyl 4-(3-(1H-benzo[d]imidazol-4-yl)pyrazolo[1,5-a]pyrimidin-5-yl)piperazine-1-carboxylate] showed an IC50 of no more than 100 nM.
For COc1ncc(F)cc1-c1cnn2ccc(N(C)CCCN(C)C(=O)OC(C)C)nc12 [isopropyl (3-((3-(5-fluoro-2-methoxypyridin-3-yl)pyrazolo[1,5-a]pyrimidin-5-yl)(methyl)amino)propyl)(methyl)carbamate], the IC50 was no more than 10 nM.
Work on COc1ncc(F)cc1-c1cnn2ccc(N3CCN(C(=O)OC(C)C)CC3)nc12 [isopropyl 4-(3-(5-fluoro-2-methoxypyridin-3-yl)pyrazolo[1,5-a]pyrimidin-5-yl)piperazine-1-carboxylate] yielded an IC50 of no more than 10 nM.
For COCc1ccccc1-c1cnn2ccc(N3CCN(C(=O)OC(C)C)CC3)nc12 [isopropyl 4-(3-(2-(methoxymethyl)phenyl)pyrazolo[1,5-a]pyrimidin-5-yl)piperazine-1-carboxylate], the IC50 was no more than 1000 nM.
COc1ccc(-c2cnn3ccc(N4CCN(C(=O)OC(C)C)CC4)nc23)c(F)n1 [isopropyl 4-(3-(2-fluoro-6-methoxypyridin-3-yl)pyrazolo[1,5-a]pyrimidin-5-yl)piperazine-1-carboxylate] gave an IC50 of no more than 100 nM.
COCCOc1ccccc1-c1cnn2ccc(N3CCN(C(=O)OC(C)C)CC3)nc12 [isopropyl 4-(3-(2-(2-methoxyethoxy)phenyl)pyrazolo[1,5-a]pyrimidin-5-yl)piperazine-1-carboxylate] showed an IC50 of no more than 100 nM.
For COc1ncc(F)cc1-c1cnn2ccc(N(C)CCN(C)C(=O)OC(C)C)nc12 [isopropyl (2-((3-(5-fluoro-2-methoxypyridin-3-yl)pyrazolo[1,5-a]pyrimidin-5-yl)(methyl)amino)ethyl)(methyl)carbamate], the IC50 was no more than 10 nM.
COCc1cn(-c2ccn3ncc(-c4cccnc4OC)c3n2)cn1 [5-(4-(methoxymethyl)-1H-imidazol-1-yl)-3-(2-methoxypyridin-3-yl)pyrazolo[1,5-a]pyrimidine] was tested, and the IC50 was no more than 100 nM.
With CCCC(=O)Nc1ccn2ncc(-c3cccnc3OC)c2n1 [N-(3-(2-methoxypyridin-3-yl)pyrazolo[1,5-a]pyrimidin-5-yl)butyramide] the IC50 was no more than 100 nM.
In the case of CC(C)OC(=O)N(C)[C@H]1CCN(c2ccn3ncc(-c4ccccn4)c3n2)C1 [(S)-isopropyl methyl(1-(3-(pyridin-2-yl)pyrazolo[1,5-a]pyrimidin-5-yl)pyrrolidin-3-yl)carbamate], the IC50 is reported as no more than 1000 nM.
Molecule Cc1ccc(-c2cnn3ccc(N4CC[C@H](N(C)C(=O)OC(C)C)C4)nc23)c(=O)n1C [(S)-isopropyl (1-(3-(1,6-dimethyl-2-oxo-1,2-dihydropyridin-3-yl)pyrazolo[1,5-a]pyrimidin-5-yl)pyrrolidin-3-yl)(methyl)carbamate] has an IC50 of no more than 1000 nM.
In the case of COc1ncccc1-c1cnn2ccc(N(C)CCCOC(C)(C)C)nc12 [N-(3-(tert-butoxy)propyl)-3-(2-methoxypyridin-3-yl)-N-methylpyrazolo[1,5-a]pyrimidin-5-amine], the IC50 is reported as no more than 100 nM.
Molecule COc1ncccc1-c1cnn2ccc(N3CCN(C(=O)OCCN(C)C)CC3)nc12 [2-(dimethylamino)ethyl 4-(3-(2-methoxypyridin-3-yl)pyrazolo[1,5-a]pyrimidin-5-yl)piperazine-1-carboxylate] has an IC50 of no more than 100 nM.
[2H]C1([2H])N(C(=O)OC(C)(C)C)C([2H])([2H])C([2H])([2H])N(c2ccn3ncc(Br)c3n2)C1([2H])[2H] [tert-butyl 4-(3-bromopyrazolo[1,5-a]pyrimidin-5-yl)-d8-piperazine-1-carboxylate] was tested, and the IC50 was no more than 100 nM.
Work on COc1c(F)cccc1-c1cnn2ccc(N3CCN(C(=O)OC(C)C)CC3)nc12 [isopropyl 4-(3-(3-fluoro-2-methoxyphenyl)pyrazolo[1,5-a]pyrimidin-5-yl)piperazine-1-carboxylate] yielded an IC50 of no more than 100 nM.
With CC(C)(C)OCCCNc1ccn2ncc(Br)c2n1 [3-bromo-N-(3-(tert-butoxy)propyl)pyrazolo[1,5-a]pyrimidin-5-amine] the IC50 was no more than 1000 nM.
CC(C)OC(=O)N1CCN(c2ccn3ncc(I)c3n2)CC1 [isopropyl 4-(3-iodopyrazolo[1,5-a]pyrimidin-5-yl)piperazine-1-carboxylate] was tested, and the IC50 was no more than 100 nM.
COCC(COC)OC(=O)N1CCN(c2ccn3ncc(-c4cccnc4OC)c3n2)CC1 [1,3-dimethoxypropan-2-yl 4-(3-(2-methoxypyridin-3-yl)pyrazolo[1,5-a]pyrimidin-5-yl)piperazine-1-carboxylate] gave an IC50 of no more than 100 nM.
Work on COC(=O)c1ccc(-c2cnn3ccc(N4CCN(C(=O)OC(C)C)CC4)nc23)cc1 [isopropyl 4-(3-(4-(methoxycarbonyl)phenyl)pyrazolo[1,5-a]pyrimidin-5-yl)piperazine-1-carboxylate] yielded an IC50 of no more than 100 nM.
Work on COc1ccccc1-c1cnn2ccc(NC[C@@H]3CCCN3C(=O)NC(C)(C)C)nc12 [(S)-N-(tert-butyl)-2-(((3-(2-methoxyphenyl)pyrazolo[1,5-a]pyrimidin-5-yl)amino)methyl)pyrrolidine-1-carboxamide] yielded an IC50 of no more than 10 nM.
COc1ncccc1-c1cnn2ccc(N3C[C@H]4C[C@@H](C3)N4C(=O)OC(C)(C)C)nc12 [(1R,5S)-tert-butyl 3-(3-(2-methoxypyridin-3-yl)pyrazolo[1,5-a]pyrimidin-5-yl)-3,6-diazabicyclo[3.1.1]heptane-6-carboxylate] was tested, and the IC50 was no more than 100 nM.
With Cc1ncccc1-c1cnn2ccc(N3CCN(C(=O)OC(C)C)CC3)nc12 [isopropyl 4-(3-(2-methylpyridin-3-yl)pyrazolo[1,5-a]pyrimidin-5-yl)piperazine-1-carboxylate] the IC50 was no more than 100 nM.
COc1ncccc1-c1cnn2ccc(OCCN(C)C(=O)OC(C)(C)C)nc12 [tert-butyl (2-((3-(2-methoxypyridin-3-yl)pyrazolo[1,5-a]pyrimidin-5-yl)oxy)ethyl)(methyl)carbamate] was tested, and the IC50 was no more than 10 nM.
Work on COc1ncc(F)cc1-c1cnn2ccc(N3CC[C@H](N(C)C(=O)OC(C)C)C3)nc12 [(S)-isopropyl (1-(3-(5-fluoro-2-methoxypyridin-3-yl)pyrazolo[1,5-a]pyrimidin-5-yl)pyrrolidin-3-yl)(methyl)carbamate] yielded an IC50 of no more than 100 nM.
In the case of COCCOC(=O)N1CCN(c2ccn3ncc(-c4cccnc4OC)c3n2)CC1 [2-methoxyethyl 4-(3-(2-methoxypyridin-3-yl)pyrazolo[1,5-a]pyrimidin-5-yl)piperazine-1-carboxylate], the IC50 is reported as no more than 10 nM.
Work on CC(C)OC(=O)N1CCN(c2ccn3ncc(-c4ccc(F)nc4)c3n2)CC1 [isopropyl 4-(3-(6-fluoropyridin-3-yl)pyrazolo[1,5-a]pyrimidin-5-yl)piperazine-1-carboxylate] yielded an IC50 of no more than 100 nM.
With COc1ncccc1-c1cnn2ccc(N3CCN(C(=O)CC(C)C)CC3)nc12 [1-(4-(3-(2-methoxypyridin-3-yl)pyrazolo[1,5-a]pyrimidin-5-yl)piperazin-1-yl)-3-methylbutan-1-one] the IC50 was no more than 10 nM.
CC(C)OC(=O)N1CCN(c2ccn3ncc(Cl)c3n2)CC1 [isopropyl 4-(3-chloropyrazolo[1,5-a]pyrimidin-5-yl)piperazine-1-carboxylate] was tested, and the IC50 was no more than 100 nM.
COc1cnccc1-c1cnn2ccc(N3CCN(C(=O)OC(C)C)CC3)nc12 [isopropyl 4-(3-(3-methoxypyridin-4-yl)pyrazolo[1,5-a]pyrimidin-5-yl)piperazine-1-carboxylate] was tested, and the IC50 was no more than 10 nM.
COc1ncccc1-c1cnn2ccc(N3CCN4C(=O)N(CC(C)C)CC4C3)nc12 (stereo not drawn) [2-isobutyl-7-(3-(2-methoxypyridin-3-yl)pyrazolo[1,5-a]pyrimidin-5-yl)hexahydroimidazo[1,5-a]pyrazin-3(2H)-one] gave an IC50 of no more than 10 nM.
In the case of COc1ncccc1-c1cnn2ccc(N3CCN(CCC(F)(F)F)CC3)nc12 [3-(2-methoxypyridin-3-yl)-5-(4-(3,3,3-trifluoropropyl)piperazin-1-yl)pyrazolo[1,5-a]pyrimidine], the IC50 is reported as no more than 1000 nM.
